Laboratory results from the supplement of paper PMC12463676, “Small-molecule dissolution of stress granules by redox modulation benefits ALS models” (Nature Chemical Biology, 2025).

How the values were obtained:
potassium arsenate = compound: O=[As]([O-])(O)O.[K+] [potassium arsenate]; experiment: thermal stability z-score vs DMSO; higher = more thermally stabilized by treatment; settings: HeLa; arsenate concentration 1 mM
Protocol: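 Cellular thermal proteome profiling in HeLa cells treated with 1 mM arsenate for 1 h (DMSO pretreatment), heated to ten temperatures (37-66.3 °C). Soluble protein was quantified by TMT mass spectrometry relative to DMSO controls; the thermal stability score was transformed to a z-score; mean of n = 3 experiments.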

lipoamide = compound: NC(=O)CCCCC1CCSS1 [lipoamide]; experiment: as above; settings: HeLa, lipoamide concentration 100 µM
Protocol: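 Cellular thermal proteome profiling in HeLa cells. Cells were treated with 100 µM lipoamide for 1 h, with or without 1 mM arsenate for a further 1 h, then heated to ten temperatures (37-66.3 °C), and soluble protein was quantified by TMT mass spectrometry relative to 0.1% DMSO controls. The thermal stability score (sum of log2 fold changes minus the abundance score) was transformed to a z-score; mean of n = 3 experiments.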

[1] = arsenate co-treatment: 1 mM arsenate 1 h
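Also: each temperature applied for 3 min, abundance score taken as mean log2 fold change at the two lowest temperatures, z-score obtained by mean subtraction and division by SD.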

Chain of UniProt P08754 (P08754 whole entry): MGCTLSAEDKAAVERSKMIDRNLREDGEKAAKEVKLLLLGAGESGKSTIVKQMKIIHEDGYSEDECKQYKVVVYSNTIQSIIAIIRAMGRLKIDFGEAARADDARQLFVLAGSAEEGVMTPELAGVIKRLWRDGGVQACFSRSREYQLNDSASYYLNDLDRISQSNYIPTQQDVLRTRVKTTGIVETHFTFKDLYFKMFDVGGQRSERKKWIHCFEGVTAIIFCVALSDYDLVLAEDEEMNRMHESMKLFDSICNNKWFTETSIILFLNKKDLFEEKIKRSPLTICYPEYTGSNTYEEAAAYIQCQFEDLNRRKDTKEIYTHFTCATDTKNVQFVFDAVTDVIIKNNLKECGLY
Chain of UniProt Q92820 (Q92820 whole entry): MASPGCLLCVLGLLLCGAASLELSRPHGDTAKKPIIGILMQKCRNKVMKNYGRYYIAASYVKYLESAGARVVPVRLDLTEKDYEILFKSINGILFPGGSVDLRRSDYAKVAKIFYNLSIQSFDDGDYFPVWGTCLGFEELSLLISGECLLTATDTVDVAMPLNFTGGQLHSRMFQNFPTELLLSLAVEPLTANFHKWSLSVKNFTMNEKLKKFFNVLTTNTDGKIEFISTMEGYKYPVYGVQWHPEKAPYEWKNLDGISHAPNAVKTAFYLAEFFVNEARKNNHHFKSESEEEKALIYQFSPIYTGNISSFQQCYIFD
Chain of UniProt P11532 (P11532 whole entry): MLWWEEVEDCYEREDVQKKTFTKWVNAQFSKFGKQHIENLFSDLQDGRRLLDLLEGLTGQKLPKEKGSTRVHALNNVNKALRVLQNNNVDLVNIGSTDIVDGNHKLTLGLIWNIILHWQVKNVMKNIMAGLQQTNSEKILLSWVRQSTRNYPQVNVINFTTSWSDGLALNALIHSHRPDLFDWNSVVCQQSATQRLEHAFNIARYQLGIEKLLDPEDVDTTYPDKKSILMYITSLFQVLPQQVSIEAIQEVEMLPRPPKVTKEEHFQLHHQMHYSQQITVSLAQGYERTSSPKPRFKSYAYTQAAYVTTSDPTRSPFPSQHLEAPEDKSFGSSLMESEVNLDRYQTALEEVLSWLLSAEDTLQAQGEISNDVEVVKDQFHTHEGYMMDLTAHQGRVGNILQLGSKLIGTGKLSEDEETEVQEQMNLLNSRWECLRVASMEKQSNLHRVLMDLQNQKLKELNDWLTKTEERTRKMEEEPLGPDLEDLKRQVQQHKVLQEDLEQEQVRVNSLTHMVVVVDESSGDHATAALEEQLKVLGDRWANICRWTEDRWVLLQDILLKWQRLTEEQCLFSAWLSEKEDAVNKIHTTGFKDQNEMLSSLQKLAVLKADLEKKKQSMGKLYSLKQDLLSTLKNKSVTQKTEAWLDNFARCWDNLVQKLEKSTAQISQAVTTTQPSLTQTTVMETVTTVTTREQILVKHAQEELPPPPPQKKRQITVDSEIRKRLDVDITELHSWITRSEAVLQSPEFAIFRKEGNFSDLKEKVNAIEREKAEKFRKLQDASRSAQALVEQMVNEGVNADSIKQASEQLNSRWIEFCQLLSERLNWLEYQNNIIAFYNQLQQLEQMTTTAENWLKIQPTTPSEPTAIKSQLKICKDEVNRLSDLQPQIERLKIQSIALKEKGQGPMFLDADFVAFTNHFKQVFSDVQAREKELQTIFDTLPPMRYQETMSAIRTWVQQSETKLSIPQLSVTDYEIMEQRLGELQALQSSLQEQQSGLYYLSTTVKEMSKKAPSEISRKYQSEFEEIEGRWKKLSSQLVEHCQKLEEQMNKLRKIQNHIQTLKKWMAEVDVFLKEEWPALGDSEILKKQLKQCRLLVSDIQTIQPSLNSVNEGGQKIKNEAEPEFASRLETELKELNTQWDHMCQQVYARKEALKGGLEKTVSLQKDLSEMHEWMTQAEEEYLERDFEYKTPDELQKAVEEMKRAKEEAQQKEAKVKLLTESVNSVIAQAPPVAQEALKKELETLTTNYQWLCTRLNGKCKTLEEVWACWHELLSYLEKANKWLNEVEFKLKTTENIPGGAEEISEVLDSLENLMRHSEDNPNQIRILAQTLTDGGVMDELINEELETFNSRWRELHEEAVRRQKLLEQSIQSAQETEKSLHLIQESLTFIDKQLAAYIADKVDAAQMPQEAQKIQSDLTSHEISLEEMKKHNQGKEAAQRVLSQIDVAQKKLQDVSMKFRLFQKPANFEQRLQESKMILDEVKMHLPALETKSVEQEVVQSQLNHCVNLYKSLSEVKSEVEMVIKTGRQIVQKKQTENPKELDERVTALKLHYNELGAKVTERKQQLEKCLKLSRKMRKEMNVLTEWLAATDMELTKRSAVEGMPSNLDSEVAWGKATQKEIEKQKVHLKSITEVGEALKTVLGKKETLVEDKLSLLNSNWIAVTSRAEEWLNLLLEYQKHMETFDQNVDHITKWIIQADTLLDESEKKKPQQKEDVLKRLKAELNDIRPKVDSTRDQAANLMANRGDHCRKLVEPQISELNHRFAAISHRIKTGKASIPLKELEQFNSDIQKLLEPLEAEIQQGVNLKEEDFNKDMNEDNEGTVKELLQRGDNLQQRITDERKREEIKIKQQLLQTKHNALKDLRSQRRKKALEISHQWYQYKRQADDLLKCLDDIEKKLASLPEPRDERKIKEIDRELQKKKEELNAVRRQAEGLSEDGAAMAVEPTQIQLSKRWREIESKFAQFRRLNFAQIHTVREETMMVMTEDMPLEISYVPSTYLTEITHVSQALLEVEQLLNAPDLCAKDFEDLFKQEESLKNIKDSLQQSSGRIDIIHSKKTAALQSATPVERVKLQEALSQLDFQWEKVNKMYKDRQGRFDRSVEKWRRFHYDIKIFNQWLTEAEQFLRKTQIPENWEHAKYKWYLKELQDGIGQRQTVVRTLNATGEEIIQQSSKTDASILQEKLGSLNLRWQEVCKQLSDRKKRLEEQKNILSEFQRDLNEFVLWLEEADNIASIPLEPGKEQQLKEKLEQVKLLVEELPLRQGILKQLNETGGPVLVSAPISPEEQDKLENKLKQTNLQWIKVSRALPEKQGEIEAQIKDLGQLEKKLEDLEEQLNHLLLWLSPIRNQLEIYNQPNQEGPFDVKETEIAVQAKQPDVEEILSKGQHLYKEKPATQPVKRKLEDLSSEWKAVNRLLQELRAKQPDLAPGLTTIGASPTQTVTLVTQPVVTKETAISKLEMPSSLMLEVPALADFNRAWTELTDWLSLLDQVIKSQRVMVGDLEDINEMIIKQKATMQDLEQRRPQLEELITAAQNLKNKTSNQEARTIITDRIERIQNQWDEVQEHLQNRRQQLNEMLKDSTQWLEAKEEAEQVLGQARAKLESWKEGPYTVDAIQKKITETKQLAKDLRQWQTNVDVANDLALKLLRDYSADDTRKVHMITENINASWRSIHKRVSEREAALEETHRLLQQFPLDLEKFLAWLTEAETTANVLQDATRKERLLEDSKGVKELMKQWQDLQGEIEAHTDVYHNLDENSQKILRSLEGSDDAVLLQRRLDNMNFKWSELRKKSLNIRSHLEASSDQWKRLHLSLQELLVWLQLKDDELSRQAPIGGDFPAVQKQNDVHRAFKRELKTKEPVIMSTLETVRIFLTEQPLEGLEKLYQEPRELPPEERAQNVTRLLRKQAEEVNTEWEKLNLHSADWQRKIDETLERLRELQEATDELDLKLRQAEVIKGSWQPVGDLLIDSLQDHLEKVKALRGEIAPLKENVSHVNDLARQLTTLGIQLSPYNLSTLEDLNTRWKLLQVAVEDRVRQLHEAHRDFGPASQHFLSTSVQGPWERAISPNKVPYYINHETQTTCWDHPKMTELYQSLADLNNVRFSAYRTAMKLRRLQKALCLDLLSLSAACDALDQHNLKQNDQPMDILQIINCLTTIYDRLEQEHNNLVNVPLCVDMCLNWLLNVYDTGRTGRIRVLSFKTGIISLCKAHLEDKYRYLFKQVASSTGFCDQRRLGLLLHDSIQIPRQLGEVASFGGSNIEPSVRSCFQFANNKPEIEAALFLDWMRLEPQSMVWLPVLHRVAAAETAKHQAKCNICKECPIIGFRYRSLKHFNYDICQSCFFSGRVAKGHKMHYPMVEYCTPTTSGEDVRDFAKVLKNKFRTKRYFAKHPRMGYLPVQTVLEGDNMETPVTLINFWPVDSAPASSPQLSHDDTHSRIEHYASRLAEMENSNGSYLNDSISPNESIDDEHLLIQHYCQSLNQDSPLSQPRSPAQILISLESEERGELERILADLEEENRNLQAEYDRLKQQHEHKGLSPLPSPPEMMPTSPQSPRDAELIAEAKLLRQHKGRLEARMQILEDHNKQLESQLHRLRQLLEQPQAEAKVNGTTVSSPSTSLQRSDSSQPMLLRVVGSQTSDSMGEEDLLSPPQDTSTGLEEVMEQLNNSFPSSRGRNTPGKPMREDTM
Chain of UniProt P49642 (P49642 whole entry): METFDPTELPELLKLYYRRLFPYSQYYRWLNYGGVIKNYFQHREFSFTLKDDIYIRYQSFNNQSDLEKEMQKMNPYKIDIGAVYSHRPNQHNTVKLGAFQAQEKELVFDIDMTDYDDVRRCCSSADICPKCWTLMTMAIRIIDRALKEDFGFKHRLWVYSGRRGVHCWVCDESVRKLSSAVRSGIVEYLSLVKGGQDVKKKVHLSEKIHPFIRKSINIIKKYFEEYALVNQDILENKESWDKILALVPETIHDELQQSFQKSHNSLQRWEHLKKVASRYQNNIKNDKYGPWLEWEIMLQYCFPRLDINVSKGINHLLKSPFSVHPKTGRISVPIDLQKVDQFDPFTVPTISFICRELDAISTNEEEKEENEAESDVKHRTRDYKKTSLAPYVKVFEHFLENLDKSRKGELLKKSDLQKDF
Chain of UniProt P0CG13 (P0CG13 whole entry): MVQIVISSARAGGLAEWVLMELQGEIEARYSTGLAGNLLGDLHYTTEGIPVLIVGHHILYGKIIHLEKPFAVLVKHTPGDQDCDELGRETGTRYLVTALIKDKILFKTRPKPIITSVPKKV
Chain of UniProt Q9H2H8 (Q9H2H8 whole entry): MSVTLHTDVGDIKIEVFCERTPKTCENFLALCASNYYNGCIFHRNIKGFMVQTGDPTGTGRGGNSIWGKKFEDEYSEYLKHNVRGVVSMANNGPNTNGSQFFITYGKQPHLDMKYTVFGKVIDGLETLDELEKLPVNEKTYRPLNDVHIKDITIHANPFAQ

| Target | thermal stability z-score (potassium arsenate) | thermal stability z-score (lipoamide; [1]) | thermal stability z-score (lipoamide; arsenate co-treatment: none) |
| --- | --- | --- | --- |
| VAPB (UniProt O95292) | -0.178 | -0.055 | 0.415 |
| KIAA0101 (UniProt Q15004) | 0.49 | 0.253 | 0.245 |
| DYNLT3 (UniProt P51808) | -0.596 | 0.487 | -0.208 |
| AMACR (UniProt Q9UHK6) | 0.504 | 0.683 | -0.138 |
| HMBS (UniProt P08397) | 0.0804 | 0.513 | 0.573 |
| AVEN (UniProt Q9NQS1) | -0.823 | 0.134 | -0.00487 |
| OVCA2 (UniProt Q8WZ82) | -0.0892 | -0.0187 | 0.0328 |
| BAG5 (UniProt Q9UL15) | -0.198 | 0.228 | 0.437 |
| MTM1 (UniProt Q13496) | -0.804 | 0.198 | 0.0354 |
| UFM1 (UniProt P61960) | 0.181 | 0.193 | 0.534 |
| ARMT1 (UniProt Q9H993) | 0.195 | 0.0878 | 0.255 |
| CCDC59 (UniProt Q9P031) | 1.06 | -0.52 | -0.816 |
| ZC3H14 (UniProt Q6PJT7) | -5.55 | 0.686 | -0.0584 |
| TULP3 (UniProt O75386) | -0.00993 | -0.00846 | 0.00888 |
| CHAMP1 (UniProt Q96JM3) | -0.567 | -0.202 | -0.497 |
| TMEM161A (UniProt Q9NX61) | 0.0752 | -0.0739 | -0.0906 |
| PRIM1 (UniProt P49642) | -0.439 | -0.361 | -0.125 |
| MLLT1 (UniProt Q03111) | -0.0158 | -0.182 | -0.111 |
| SHMT2 (UniProt P34897) | 0.0996 | -0.198 | -0.436 |
| MATR3 (UniProt P43243) | -1.69 | 2.1 | 0.607 |
| MRPL48 (UniProt Q96GC5) | 0.101 | -0.0867 | 0.198 |
| PRIM2 (UniProt P49643) | -0.113 | 0.176 | -0.165 |
| SUPT6H (UniProt Q7KZ85) | -1 | 0.225 | 0.758 |
| LUC7L (UniProt Q9NQ29) | -1.2 | -0.243 | -0.433 |
| FURIN (UniProt P09958) | 0.11 | 0.3 | 0.345 |
| TSEN2 (UniProt Q8NCE0) | -0.00537 | 0.337 | 0.418 |
| PRKCDBP (UniProt Q969G5) | 0.331 | 1.06 | -0.0261 |
| PRPF4 (UniProt O43172) | 0.565 | 1.82 | 1.6 |

| Target | thermal stability z-score (potassium arsenate) | thermal stability z-score (lipoamide; [1]) | thermal stability z-score (lipoamide; arsenate co-treatment: none) |
| --- | --- | --- | --- |
| MTMR2 (UniProt Q13614) | -0.555 | 0.88 | -0.108 |
| GNAI3 (UniProt P08754) | -1.24 | 0.0735 | 0.0764 |
| DMD (UniProt P11532) | -0.176 | 0.0264 | -0.124 |
| CMAS (UniProt Q8NFW8) | -0.438 | -0.0844 | -0.141 |
| CHTF8 (UniProt P0CG13) | 0.975 | 1.3 | 0.577 |
| EML2 (UniProt O95834) | -0.718 | 1.13 | 0.223 |
| GGH (UniProt Q92820) | 0.317 | 0.661 | 0.64 |
| SRSF11 (UniProt Q05519) | 0.0211 | 0.00966 | 0.41 |
| PPIL3 (UniProt Q9H2H8) | -0.32 | -0.0679 | 0.0318 |
| ABI2 (UniProt Q9NYB9) | 0.72 | 0.0724 | 0.978 |
| RAB27A (UniProt P51159) | 0.579 | 0.277 | -0.14 |
| GAK (UniProt O14976) | 0.475 | 0.338 | -0.0197 |
| DDX54 (UniProt Q8TDD1) | -0.136 | -0.154 | -0.015 |
| INPP5F (UniProt Q9Y2H2) | 0.13 | -0.128 | -0.261 |
| RPS25 (UniProt P62851) | -0.573 | 0.792 | 0.586 |
| PPP1R3D (UniProt O95685) | -0.0465 | -0.601 | -0.982 |
| JMY (UniProt Q8N9B5) | -0.323 | -0.0736 | -0.168 |
| LMAN2L (UniProt Q9H0V9) | 0.373 | -2.57 | -1.5 |
| IDH3G (UniProt P51553) | -0.189 | 0.738 | -0.664 |
| ZHX3 (UniProt Q9H4I2) | -0.227 | -0.187 | -0.116 |
| ILK (UniProt Q13418) | 0.129 | 0.201 | -0.00153 |
| CTNNA1 (UniProt P35221) | -0.4 | 0.319 | 0.2 |
| PUM3 (UniProt Q15397) | 0.369 | 0.119 | -0.0918 |
| VCPIP1 (UniProt Q96JH7) | -0.233 | -0.216 | -0.156 |
| ACAD9 (UniProt Q9H845) | -0.21 | 0.127 | 0.0316 |
| NDUFA9 (UniProt Q16795) | 0.475 | 0.188 | 0.112 |
| POLE3 (UniProt Q9NRF9) | 0.375 | -0.405 | -0.285 |
